Experiment [1] concerns the target T1, Ascaris suum succinate-ubiquinone reductase (mitochondrial complex II) (Ascaris suum, UniProt O44074+P92506+P92507).
T1 construct: from tissue; host or cells: mitochondria from adult Ascaris suum muscle
The experiment is described as follows: In vitro measurement of inhibitory activity on Ascaris suum succinate-ubiquinone reductase (mitochondrial complex II). To be noted: mitochondria from adult Ascaris suum muscle, UQ2 60 μM, succinate 10 mM, 25° C. In kind it is biochemical. How it is done: In Vitro Measurement of Inhibitory Activity on Ascaris suum Succinate-Ubiquinone Reductase (Mitochondrial Complex II)
To a solution containing 50 mM potassium phosphate (pH 7.4) and 0.1% (w/v) sucrose monolaurate, an electron acceptor ubiquinone-2 (UQ2) was added at a final concentration of 60 μM, and the mixture was allowed to stand at 25° C. for 20 minutes. To this, potassium cyanide (final concentration: 2 mM) and mitochondria prepared from adult Ascaris suum muscle were added, and thorough mixing was done. To aliquots of the mixture, an inhibitor to be tested was added at various concentrations, and the mixtures were allowed to stand at 25° C. for 3 minutes. The enzymatic reaction was initiated by addition of potassium succinate (final concentration: 10 mM). The enzymatic activity was calculated based on the measurement of change in the absorbance at 278 nm of UQ2 (e=1.5×10^4 M^−1 cm^−1), and IC50 was determined from the plot of the inhibition percentage against the inhibitor concentration.

For experiment [2], the system named is Haemonchus contortus L1-stage larvae. The experiment is described as follows: In vivo activity test on Haemonchus nematode (motor ability of L1-stage larvae in 96-well plate). To be noted: 27° C./95% RH, 4 days. The procedure:
In Vivo Activity Test on Haemonchus Nematode In a 96-well plate, twenty L1-stage larvae (Haemonchus contortus) per well were maintained so that they could freely move, and solutions of compounds of the present invention dissolved at predetermined concentrations in DMSO (the final concentration of DMSO was 0.78% (v/v)) were added at 0.5 Ill/well each. The plate was kept under the conditions of 27° C./95% RH for 4 days. The motor ability of the larvae was examined and the concentration required for 50% inhibition of the motor ability (EC50) was determined. Based on the EC50 value, the activity against the Haemonchus nematode was graded according to the criterion shown below. Grading Criterion A: The EC50 value is lower than 0.5 ppm. B: The EC50 value is 0.5 ppm or higher but lower than 5 ppm. C: The EC50 value is 5 ppm or higher.

T1 sequence (O44074 22-282): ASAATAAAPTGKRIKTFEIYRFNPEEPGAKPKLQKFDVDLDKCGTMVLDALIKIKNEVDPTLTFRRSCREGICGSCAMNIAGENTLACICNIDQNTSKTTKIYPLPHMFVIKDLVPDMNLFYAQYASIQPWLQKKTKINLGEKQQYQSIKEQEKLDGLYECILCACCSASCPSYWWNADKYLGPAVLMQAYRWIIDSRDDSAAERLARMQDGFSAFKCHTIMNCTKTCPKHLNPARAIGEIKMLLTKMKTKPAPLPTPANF
T1 sequence (P92506 32-188): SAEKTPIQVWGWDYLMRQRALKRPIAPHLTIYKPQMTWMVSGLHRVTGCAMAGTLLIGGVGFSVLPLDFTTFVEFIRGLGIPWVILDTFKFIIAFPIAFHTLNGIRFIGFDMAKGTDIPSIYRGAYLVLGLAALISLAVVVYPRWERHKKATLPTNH
T1 sequence (P92507 26-156): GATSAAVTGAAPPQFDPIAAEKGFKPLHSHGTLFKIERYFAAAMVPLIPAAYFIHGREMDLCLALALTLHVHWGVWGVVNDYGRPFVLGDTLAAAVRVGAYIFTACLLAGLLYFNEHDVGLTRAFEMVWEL
T1 sequence (Q33862 19-645 partner): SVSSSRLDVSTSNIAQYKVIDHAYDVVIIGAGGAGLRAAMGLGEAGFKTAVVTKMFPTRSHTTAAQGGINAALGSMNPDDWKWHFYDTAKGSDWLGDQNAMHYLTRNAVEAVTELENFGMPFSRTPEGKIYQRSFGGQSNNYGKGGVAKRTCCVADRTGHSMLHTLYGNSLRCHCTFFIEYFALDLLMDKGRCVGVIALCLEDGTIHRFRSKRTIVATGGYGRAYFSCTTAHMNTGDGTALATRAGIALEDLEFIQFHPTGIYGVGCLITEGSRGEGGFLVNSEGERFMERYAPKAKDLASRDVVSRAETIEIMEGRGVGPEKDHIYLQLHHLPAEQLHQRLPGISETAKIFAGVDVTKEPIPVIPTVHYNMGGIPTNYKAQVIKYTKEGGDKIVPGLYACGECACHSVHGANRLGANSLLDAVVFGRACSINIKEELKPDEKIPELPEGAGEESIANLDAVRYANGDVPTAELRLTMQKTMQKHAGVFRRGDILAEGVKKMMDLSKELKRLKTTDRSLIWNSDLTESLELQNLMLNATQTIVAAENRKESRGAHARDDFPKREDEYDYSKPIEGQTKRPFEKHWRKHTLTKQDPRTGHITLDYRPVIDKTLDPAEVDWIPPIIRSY

Broadly, the IC50 is the point on the concentration scale where inhibition reaches its midpoint. A higher IC50 goes with weaker potency. Regarding `C[C@@H](Cn1nc(Cl)cc1C(F)(F)F)NC(=O)c1ccccc1C(F)(F)F` [Compound 1], in experiment [1], inhibition was half-maximal at 5.2 nM (IC50). Moreover, the “Grade (EC50, concentration required for 50% inhibition of the motor ability of larvae)” value in experiment [2] was “A (The EC50 value is lower than 0.5 ppm.)”.

For the compound `C[C@@H](Cn1nc(C(F)(F)F)cc1Cl)NC(=O)c1ccccc1C(F)(F)F` [Compound 2], the “Grade (EC50, concentration required for 50% inhibition of the motor ability of larvae)” value in experiment [2] is listed as “A (The EC50 value is lower than 0.5 ppm.)”.

`C[C@@H](Cn1nc(Cl)c(Br)c1Cl)NC(=O)c1ccccc1C(F)(F)F` [Compound 3] yielded a 50% inhibitory concentration (IC50) in experiment [1] of 1.4 nM. For the same compound, the “Grade (EC50, concentration required for 50% inhibition of the motor ability of larvae)” value in experiment [2] is listed as “A (The EC50 value is lower than 0.5 ppm.)”.

As for `C[C@@H](Cn1nc(C(F)(F)F)c(Cl)c1Cl)NC(=O)c1ccccc1C(F)(F)F` [Compound 4], the IC50 in experiment [1] amounted to 1.9 nM. Further, the “Grade (EC50, concentration required for 50% inhibition of the motor ability of larvae)” value in experiment [2] was “A (The EC50 value is lower than 0.5 ppm.)”.

As to `C[C@@H](Cn1nc(C(F)(F)F)cc1Br)NC(=O)c1ccccc1C(F)(F)F` [Compound 5], the IC50 in experiment [1] was determined as 5.8 nM. The “Grade (EC50, concentration required for 50% inhibition of the motor ability of larvae)” value in experiment [2] is “A (The EC50 value is lower than 0.5 ppm.)”.

`Cc1ccccc1C(=O)N[C@@H](C)Cn1nc(Cl)c(Br)c1C(F)(F)F` [Compound 6]: half-maximal inhibition in experiment [1] (IC50) required 2 nM.

Regarding `C[C@@H](Cn1nc(Cl)c(Br)c1C(F)(F)F)NC(=O)c1ccccc1C(F)(F)F` [Compound 7], half-maximal inhibition in experiment [1] (IC50) required 1.7 nM. The “Grade (EC50, concentration required for 50% inhibition of the motor ability of larvae)” value in experiment [2] is “A (The EC50 value is lower than 0.5 ppm.)”.

With `Cc1ccccc1C(=O)N[C@@H](C)Cn1nc(Cl)cc1C(F)(F)F` [Compound 10], the “Grade (EC50, concentration required for 50% inhibition of the motor ability of larvae)” value in experiment [2] is recorded as “B (The EC50 value is 0.5 ppm or higher but lower than 5 ppm.)”.

In experiment [1], `C[C@@H](Cn1nc(Br)c(Br)c1Br)NC(=O)c1ccccc1C(F)(F)F` [Compound 14] registered an IC50 of 1.8 nM.

With `CSc1cc(C(F)(F)F)n(C[C@H](C)NC(=O)c2ccccc2C(F)(F)F)n1` [Compound 18], half-maximal inhibition in experiment [1] (IC50) was put at 3.1 nM.

On to `C[C@@H](COc1ncc(C(F)(F)F)cc1Cl)NC(=O)c1ccccc1C(F)(F)F` [Compound 23], for which inhibition in experiment [1] was half-maximal at 1.8 nM (IC50). Moreover, the “Grade (EC50, concentration required for 50% inhibition of the motor ability of larvae)” value in experiment [2] is listed as “A (The EC50 value is lower than 0.5 ppm.)”.

`O=C(NCCNc1ncc(C(F)(F)F)cc1Cl)c1ccccc1C(F)(F)F` [Compound 24] yielded an IC50 in experiment [1] of 11 nM. For the same compound, the “Grade (EC50, concentration required for 50% inhibition of the motor ability of larvae)” value in experiment [2] was “A (The EC50 value is lower than 0.5 ppm.)”.

In turn, `O=C(NCCc1ccc(Oc2ncc(C(F)(F)F)cc2Cl)cc1Cl)c1ccccc1C(F)(F)F` [Compound 26] showed an IC50 in experiment [1] of 1.4 nM. The “Grade (EC50, concentration required for 50% inhibition of the motor ability of larvae)” value in experiment [2] is given as “A (The EC50 value is lower than 0.5 ppm.)”.

`C[S+]([O-])c1ccc(CCNC(=O)c2ccccc2C(F)(F)F)c(Cl)c1` (centres unmarked) [Compound 27] displayed an IC50 in experiment [1] of 260 nM. For the same compound, the “Grade (EC50, concentration required for 50% inhibition of the motor ability of larvae)” value in experiment [2] was “B (The EC50 value is 0.5 ppm or higher but lower than 5 ppm.)”.

`CSc1ccccc1C(=O)NCCc1ccc(Cl)cc1Cl` [Compound 28] registered an IC50 in experiment [1] of 1.2 nM. The “Grade (EC50, concentration required for 50% inhibition of the motor ability of larvae)” value in experiment [2] is recorded as “A (The EC50 value is lower than 0.5 ppm.)”.

With `O=C(NCCc1ccc(Cl)cc1Cl)c1ccccc1SC(F)F` [Compound 31], the IC50 in experiment [1] was 8.2 nM.

In experiment [1], `O=C(NCCc1ccc(Cl)cc1Cl)c1ccccc1OC(F)(F)F` [Compound 32] displayed an IC50 of 48 nM. Also, in experiment [2], the “Grade (EC50, concentration required for 50% inhibition of the motor ability of larvae)” value was “A (The EC50 value is lower than 0.5 ppm.)”.

In experiment [1], `O=C(NCCc1ncc(C(F)(F)F)cc1Cl)c1ccccc1Cl` [Compound 34] yielded a half-inhibitory concentration (IC50) of 2.1 nM.

In the case of `O=C(NCCc1ncc(C(F)(F)F)cc1Cl)c1ccccc1Br` [Compound 35], the IC50 in experiment [1] was 2.3 nM.

For `O=C(NCCc1ncc(C(F)(F)F)cc1Cl)c1ccccc1I` [Compound 36], the IC50 in experiment [1] was 1.2 nM. Further, in experiment [2], the “Grade (EC50, concentration required for 50% inhibition of the motor ability of larvae)” value is recorded as “A (The EC50 value is lower than 0.5 ppm.)”.

For the compound `Cc1ccccc1C(=O)NCCc1ncc(C(F)(F)F)cc1Cl` [Compound 37], the IC50 in experiment [1] was determined as 2.6 nM.

Turning to `O=C(NCCc1ncc(C(F)(F)F)cc1Cl)c1c(F)cccc1F` [Compound 39], in experiment [1], the IC50 was 5.3 nM.

`O=C(NCCc1ncc(C(F)(F)F)cc1Cl)c1c(Cl)cccc1Cl` [Compound 40] came in with an IC50 in experiment [1] of 39 nM.

Source of the values: patent publication US9550749B2, “Endoparasite control agent and method for using the same” (The University of Tokyo, priority 2012, dated 2017).
